Experimental findings from publication PMC11427369 (Frontiers in Pharmacology, 2024) are described below.

SMILES strings stand for the structures.

Test [1] deals with T1, PA63 (Bacillus anthracis, UniProt P13423).
T1 construct: gene pagA
The format is biochemical.

Test [2] has as its target C2IIa (Clostridium botulinum, UniProt O86171). The class given is biochemical.

Chain of C2IIa (O86171 182-721 limits assumed): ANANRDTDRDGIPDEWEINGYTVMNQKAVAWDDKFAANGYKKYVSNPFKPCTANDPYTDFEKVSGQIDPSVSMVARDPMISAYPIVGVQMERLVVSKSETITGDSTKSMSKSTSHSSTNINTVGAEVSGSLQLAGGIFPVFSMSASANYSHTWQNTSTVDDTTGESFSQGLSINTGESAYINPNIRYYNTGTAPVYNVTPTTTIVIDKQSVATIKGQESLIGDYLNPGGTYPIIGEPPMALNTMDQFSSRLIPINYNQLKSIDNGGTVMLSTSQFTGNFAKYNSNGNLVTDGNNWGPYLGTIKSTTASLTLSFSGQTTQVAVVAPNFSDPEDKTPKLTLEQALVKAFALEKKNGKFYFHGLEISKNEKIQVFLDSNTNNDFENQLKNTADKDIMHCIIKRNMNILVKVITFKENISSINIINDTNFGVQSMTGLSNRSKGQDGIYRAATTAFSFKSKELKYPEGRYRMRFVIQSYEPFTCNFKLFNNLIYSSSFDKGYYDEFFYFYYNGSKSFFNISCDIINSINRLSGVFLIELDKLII
T1 sequence (P13423 197-764 limits assumed): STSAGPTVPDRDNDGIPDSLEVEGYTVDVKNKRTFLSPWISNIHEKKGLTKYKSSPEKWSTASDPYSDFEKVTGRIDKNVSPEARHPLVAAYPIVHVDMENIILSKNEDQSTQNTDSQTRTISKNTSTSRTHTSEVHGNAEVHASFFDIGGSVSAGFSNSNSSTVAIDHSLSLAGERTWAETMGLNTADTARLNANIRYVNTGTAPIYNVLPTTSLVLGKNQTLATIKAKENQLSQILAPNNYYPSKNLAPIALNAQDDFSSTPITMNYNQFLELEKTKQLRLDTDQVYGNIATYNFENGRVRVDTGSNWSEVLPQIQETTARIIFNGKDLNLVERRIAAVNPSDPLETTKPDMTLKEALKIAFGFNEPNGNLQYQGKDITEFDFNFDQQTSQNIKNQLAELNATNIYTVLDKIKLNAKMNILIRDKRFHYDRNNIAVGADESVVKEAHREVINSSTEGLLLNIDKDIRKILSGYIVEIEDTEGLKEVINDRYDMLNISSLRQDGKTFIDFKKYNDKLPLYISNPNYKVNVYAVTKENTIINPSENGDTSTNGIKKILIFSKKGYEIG

Take `CCN(CC)C(=S)SSC(=S)N(CC)CC` [disulfiram]: the “pore conductance block, planar lipid bilayer” value in test [1] was “addition of DSF immediately blocked any current flow, leading to zero level of conductance”; in test [2], “addition of DSF led to an immediate block of any current flowing”.
